The text below walks through data of US20160193219A1, “SUBSTITUTED 2,3-DIHYDROIMIDAZO[1,2-C]QUINAZOLINE SALTS” (priority 2011, published 2016).

For data set [1] the following is noted: 16 h.
Data set [2] is described as follows: Stability as solid (stored at 90° C. for 1 week, HPLC). The settings on record: for therm. stab. solid: 1 w @ 90° C.; for sum of impurities: HPLC area. It counts as physicochemical.
For data set [3] the following is noted: for pH: Saturated solution in water; for XRPD (solid residue): solid retained on filter after 20 h in water at 25° C.
A further data set concerns PC3. Kind of data set: Proliferation assay (Cell Titer-Glo, 72 h), PC3. Particulars: PC3, Prostate, dihydrochloride. A general note: Cellular ATP, detected with luciferase, serves as a proxy for viable cell number.
The subject of a further data set is LNCaP. Kind of data set: Proliferation assay (Cell Titer-Glo, 72 h), LNCaP. Particulars: Prostate, dihydrochloride.
For the next data set, the system named is A549. The data set can be described thus: Proliferation assay (Cell Titer-Glo, 72 h), A549. The settings on record: A549, Lung, dihydrochloride.
The nature of another data set: physchem. The settings on record: 25 °C, water, thermodynamic from solid.
The subject of the next data set is MCF7. Kind of data set: Proliferation assay (Cell Titer-Glo, 72 h), MCF7. The settings on record: MCF7, Breast, dihydrochloride.
A further data set deals with Colo205. The data set can be described thus: Proliferation assay (Cell Titer-Glo, 72 h), Colo205. The settings on record: Colo205, Colon, dihydrochloride.
For a further data set, the system named is HCT116. Kind of data set: Proliferation assay (Cell Titer-Glo, 72 h), HCT116. Particulars: HCT116, Colon, dihydrochloride.
The next data set relates to HT29. The data set can be described thus: Proliferation assay (Cell Titer-Glo, 72 h), HT29. The settings on record: HT29, Colon, dihydrochloride.
A further data set deals with T47D. Kind of data set: Proliferation assay (Cell Titer-Glo, 72 h), T47D. Particulars: Breast, dihydrochloride.
The next data set concerns MDA-MB-468. Kind of data set: Proliferation assay (Cell Titer-Glo, 72 h), MDA-MB-468. Particulars: MDA-MB-468, Breast, dihydrochloride.
In data set [4] the test system is 16 tumor cell lines covering 6 cancer indications. The data set can be described thus: Proliferation assays, panel of 16 tumor cell lines. The settings on record: all the tumor cell lines tested (panel of 16). The class given is cell-based. The method, then: Cell proliferation is determined using the Cell Titer-Glo luminescent cell viability kit from Promega (Cat. #G7573) after 72 hours exposure to the drugs. Briefly, cells were plated at 500-1000 cells/well of 384-well plates in 25 μL growth medium. For each cell line assayed, cells were plated into a separate plate for determination of luminescence at the t=0 hours and t=72 hour time points. […] Dose plates for t=72 hour time points were treated with compounds diluted into growth medium in a final volume of 30 μL. Cells were then incubated for 72 hours at 37° C. Luminescence values for the t=72 hour samples were determined by adding 30 μL of Promega CellTiter-Glo solution, placing the cells on a shaker for 10 minutes at room temperature, and then reading the luminescence using a Victor luminometer. For data processing, t=0 values are subtracted from those determined for the t=72 hour time points, for both the treated and untreated samples. Percent differences in luminescence between drug treated and controls are used to determine percent inhibition of growth.

A further data set in a line: Crystallinity by XRPD. The class given is physicochemical.
The next data set concerns SK-Br-3. The data set can be described thus: Proliferation assay (Cell Titer-Glo, 72 h), SK-Br-3. Particulars: SK-Br-3, Breast, dihydrochloride.
The next data set deals with BT474. Kind of data set: Proliferation assay (Cell Titer-Glo, 72 h), BT474. Particulars: BT474, Breast, dihydrochloride.
Another data set relates to 786O. Kind of data set: Proliferation assay (Cell Titer-Glo, 72 h), 786O. The settings on record: Kidney, dihydrochloride.
For another data set, the system named is H460. The data set can be described thus: Proliferation assay (Cell Titer-Glo, 72 h), H460. Particulars: H460, Lung, dihydrochloride.
The nature of data set [5]: Additional solubility data in different solvents (20 h at 25° C.). The class given is physicochemical. The method, then: The dihydrochloride of formula (II) was stirred in 20 mL of different solvents for 20 h at 25° C. In all hydrous solvents approx. 2 g of the dihydrochloride of formula (II) have been solved completely.
The subject of the next data set is BT20. The data set can be described thus: Proliferation assay (Cell Titer-Glo, 72 h), BT20. The settings on record: BT20, Breast, dihydrochloride.
[6] abbreviates: solid stored at 90° C. for 1 week.
The mark [7] stands for this setting: listed as Hydrochloric acid (Ex. 1), dihydrochloride.

Structures can show the parent of a compound that is named as a salt. Where two headings read alike, the source gives them in different places.

`COc1c(OCCCN2CCOCC2)ccc2c1N=C(NC(=O)c1cnc(N)nc1)N1CCN=C21.CS(=O)(=O)O.CS(=O)(=O)O` [Comparative Example 6] came in with an aqu. solubility in data set [1] greater than 8.3 mg/100 ml. Also, in data set [2], the therm. stab. solid entry is on record as “+”. For the same compound, in data set [2] (setting [6]), the “HPLC, area % DS” value was ~96.7% (sum of; the “HPLC, wt % DS” value worked out at 59.5 wt %; the sum of impurities entry is “impurities ~3.3%)”. In addition, in data set [3], the pH was roughly 2.3.
Usually IC50 stands for the concentration at which inhibition is half-maximal. A low value points to inhibition by little substance. In general, solubility (thermodynamic) refers to solubility found after equilibrating the solid with the medium. As for `COc1c(OCCCN2CCOCC2)ccc2c1N=C(NC(=O)c1cnc(N)nc1)N1CCN=C21` [dihydrochloride salt of formula (II), 2-amino-N-[7-methoxy-8-(3-morpholin-4-ylpropoxy)-2,3-dihydroimidazo[1,2-c]quinazolin-5-yl]pyrimidine-5-carboxamide dihydrochloride], the IC50 in the data set with PC3 was 90 nM; in the data set with LNCaP, 67 nM; in the data set on A549, 44 nM; with MCF7 it was 9 nM; in the data set on Colo205 it was 110 nM; in the data set on HCT116, 72 nM. Further, the IC50 was 10 nM in the data set with HT29; 2 nM in the data set with T47D; 256 nM with MDA-MB-468; 1 nM in the data set with SK-Br-3; 10 nM in the data set with BT474; 247 nM with 786O. Besides, the IC50 with H460 turned out to be 67 nM; in the data set on BT20, 2 nM. This compound also displayed a thermodynamic solubility at 16 h in “physchem” greater than 88 µg/mL. Moreover, the therm. stab. solid entry in data set [2] (setting [7]) is given as “+”. Besides, the “HPLC, area % DS” value in data set [2] (setting [6]) is ~98.2%; sum of. Further, the “HPLC, wt % DS” value in data set [2] (setting [6]) is on record as roughly 65.6 wt %. Moreover, the “Stability as solid (Comments)” value in data set [2] (setting [6]) is given as “Stable”. The sum of impurities entry in [2] (setting [6]) is given as “impurities ~1.8%”. Further, the pH in [3] was roughly 2.4. Further, the “XRPD (solid residue)” value in data set [3] is listed as “crystalline”. Further, the Solubility in data set [3] (water, 25° C., 20 h, HPLC) was greater than 8.8 mg/100 ml; in [5] (0.1M HCl, 20 h at 25° C.) it was “≧8800 mg/100 ml soluble”; in data set [5] (Acetone, 20 h at 25° C.), 0.3 mg/100 ml practically insoluble; in data set [5] (Acetonitrile, 20 h at 25° C.) it was 1.1 mg/100 ml practically insoluble; in data set [5] (Buffer pH 4.5, 20 h at 25° C.), “≧8900 mg/100 ml soluble”; in data set [5] (Buffer pH 7.0, 20 h at 25° C.) it was “≧8700 mg/100 ml soluble”. The Solubility is 24.8 mg/100 ml very slightly soluble in data set [5] (Ethanol, 20 h at 25° C.); 301 mg/100 ml slightly soluble in [5] (PEG400, 20 h at 25° C.); “≧9400 mg/100 ml soluble” in data set [5] (Water, 20 h at 25° C.). In addition, the “difference in the IC50 values (free base vs dihydrochloride salt)” value in data set [4] is listed as “less than 3 fold”. Further, the crystallinity entry in the data set “Crystallinity by XRPD” (setting [7]) is recorded as “++”.
`COc1c(OCCCN2CCOCC2)ccc2c1N=C(NC(=O)c1cnc(N)nc1)N1CCN=C21.O=C(O)/C=C\C(=O)O.O=C(O)/C=C\C(=O)O` [Comparative Example 5]: the aqu. solubility in data set [1] is reported as greater than 8.1 mg/100 ml. Moreover, in [2], the therm. stab. solid result was “+”. Moreover, in data set [2] (setting [6]), the “HPLC, area % DS” value is recorded as ~96.9% (sum of; the “HPLC, wt % DS” value was determined as 59.4 wt %; the sum of impurities entry is “impurities ~3.1%)”. In data set [3], the pH amounted to 3.1 and the “XRPD (solid residue)” value is recorded as “crystalline”. Also, the crystallinity result in “Crystallinity by XRPD” was “+”.
